Data: ChEMBL document CHEMBL5252605, “Design, synthesis, and biological testing of biphenylmethyloxazole inhibitors targeting HIV-1 reverse transcriptase” (Bioorg Med Chem Lett, 2023)
Active and inactive are the calls of the source. The rule behind the calls is not given here.

Legend:
[1] = tested on: Human immunodeficiency virus 1; test: Antiviral activity against wildtype HIV-1 IIIb infected in human MT2 cells assessed as protection of viral infected cells; format: functional, organism-based; settings: for EC50: Human immunodeficiency virus 1, IIIB
MT2 = test: Cytotoxicity against human MT2 cells assessed as inhibition of cell growth; format: toxicity, cell-based
[2] = biological target: Human immunodeficiency virus type 1 reverse transcriptase (Human immunodeficiency virus 1, UniProt Q72547); test: Inhibition of recombinant wildtype HIV-1 reverse transcriptase using r(A)350 as template and d(T)16 as primer preincubated with compound for 1 hrs followed by template/primer addition and measured after 30 mins by picogreen based plate reader analysis
[3] = biological target: Human immunodeficiency virus type 1 reverse transcriptase (Human immunodeficiency virus 1) (UniProt Q72547); test: Time dependent inhibition of recombinant wildtype HIV-1 reverse transcriptase at 0.1 to 1000000 nM; settings: dose 0.1-1e+06 nM, time 1-48 hrs

SMILES | EC50 [1] | CC50 (MT2) | IC50 [2] | TDI [3] | Activity [1]
N#Cc1ccc(-c2cc(F)c(Cc3cnc(Nc4ccc(C#N)c(Cl)c4)o3)c(F)c2)cc1 | 0.016 µM | 9.5 µM | < 0.01 µM |  | 
N#Cc1ccc(Nc2ncc(Cc3c(F)cc(-c4ccc(C#N)cc4)cc3F)o2)cc1 | 0.03 µM | 9 µM | 0.011 µM |  | 
N#Cc1ccc(Nc2ncc(Cc3c(F)cc(-c4ccc(C5CO5)cc4)cc3F)o2)cc1Cl (configuration not stated) | 0.61 µM | 25 µM | 0.44 µM | inactive | 
COc1ccc(-c2ccc(Cc3cnc(Nc4ccc(C#N)cc4)o3)cc2)cc1 |  | 27 µM | > 10 µM |  | inactive
N#Cc1ccc(Nc2ncc(Cc3c(F)cc(-c4ccc(OS(=O)(=O)F)cc4)cc3F)o2)cc1Cl | 4.3 µM | 25 µM | 3 µM | inactive | 
N#Cc1ccc(Nc2ncc(Cc3c(F)cc(-c4ccccc4)cc3F)o2)cc1 | 0.17 µM | 59 µM | 0.02 µM |  | 
N#Cc1ccc(Nc2ncc(Cc3c(F)cc(-c4ccc(OS(=O)(=O)F)cc4)cc3F)o2)cc1 |  | 30 µM | > 20 µM | inactive | inactive
N#Cc1ccc(Nc2ncc(Cc3c(F)cccc3F)o2)cc1Cl | 0.0062 µM |  |  |  | 
C=Cc1ccc(-c2cc(F)c(Cc3cnc(Nc4ccc(C#N)c(Cl)c4)o3)c(F)c2)cc1 | 0.019 µM | 30 µM | 0.017 µM |  | 
N#Cc1ccc(Nc2ncc(Cc3c(F)cc(-c4ccc(O)cc4)cc3F)o2)cc1Cl | 1.3 µM | 15 µM | 0.28 µM |  | 
N#Cc1ccc(Nc2ncc(Cc3c(F)cc(-c4ccc(O)cc4)cc3F)o2)cc1 | 5.5 µM | 15 µM | > 1 µM |  | 
N#Cc1ccc(Nc2ncc(Cc3ccc(-c4ccccc4)cc3)o2)cc1 |  | 80 µM | > 100 µM |  | inactive
